Assay results as given in patent US11135234B2, “Effective aminoglycoside antibiotic for multidrug-resistant bacteria” (MICROBIAL CHEMISTRY RESEARCH FOUNDATION, priority 2015, dated 2021).
In brackets after ≈: the same amount, converted by molar mass.

Experiments:
[1] = tested on: S. aureus RN4220; assay: MIC, agar plate dilution method, S. aureus RN4220; assay type: cell-based, Staphylococcus aureus; settings: for MIC: Staphylococcus aureus, RN4220, S. aureus RN4220, Sensitive bacterium, read-out: minimal inhibitory concentration (MIC); for minimal inhibitory concentration (MIC): S. aureus RN4220, Sensitive bacterium
Method: (§1) As for the representative compounds of a new aminoglycoside antibiotic of the present invention described in Examples, the minimal inhibitory concentration (MIC, μg/mL) was measured for various assay strains of bacteria using an agar plate dilution method in accordance with the method described in the Japan Society of Chemotherapy.

[2] = tested on: S. aureus RN4220/pMS520; assay: MIC, agar plate dilution method, S. aureus RN4220/pMS520; assay type: cell-based, Staphylococcus aureus; settings: for MIC: Staphylococcus aureus, MRSA, read-out: minimal inhibitory concentration (MIC), S. aureus RN4220/pMS520, MRSA; for minimal inhibitory concentration (MIC): S. aureus RN4220/pMS520, MRSA
Method: as §1

[3] = tested on: S. aureus MF490; assay: MIC, agar plate dilution method, S. aureus MF490; assay type: cell-based, Staphylococcus aureus; settings: for MIC: Staphylococcus aureus, MRSA, read-out: minimal inhibitory concentration (MIC); for minimal inhibitory concentration (MIC): S. aureus MF490, MRSA
Method: as §1

[4] = tested on: E. faecium ATCC19434; assay: MIC, agar plate dilution method, E. faecium ATCC19434; assay type: cell-based, Enterococcus faecium; settings: for MIC: Enterococcus faecium, ATCC19434, E. faecium ATCC19434, read-out: minimal inhibitory concentration (MIC); for minimal inhibitory concentration (MIC): E. faecium ATCC19434
Method: as §1

[5] = tested on: E. coli JM109/pMW218; assay: MIC, agar plate dilution method, E. coli JM109/pMW218; assay type: cell-based, Escherichia coli; settings: for MIC: Escherichia coli, JM109/PMW218, E. coli JM109/pMW218, Sensitive bacterium, read-out: minimal inhibitory concentration (MIC); for minimal inhibitory concentration (MIC): E. coli JM109/pMW218, Sensitive bacterium
Method: as §1

[6] = tested on: K. pneumoniae ATCC BAA-1705; assay: MIC, agar plate dilution method, K. pneumoniae ATCC BAA-1705; assay type: cell-based, Klebsiella pneumoniae; settings: for MIC: Klebsiella pneumoniae, ATCCBAA1705, K. pneumoniae ATCC BAA-1705, KPC-producing strain, read-out: minimal inhibitory concentration (MIC); for minimal inhibitory concentration (MIC): K. pneumoniae ATCC BAA-1705, KPC-producing strain
Method: as §1

[7] = tested on: K. pneumoniae ATCC BAA-2146; assay: MIC, agar plate dilution method, K. pneumoniae ATCC BAA-2146; assay type: cell-based, Klebsiella pneumoniae; settings: for MIC: Klebsiella pneumoniae, ATCCBAA2146, K. pneumoniae ATCC BAA-2146, NDM-producing strain, read-out: minimal inhibitory concentration (MIC); for minimal inhibitory concentration (MIC): K. pneumoniae ATCC BAA-2146, NDM-producing strain
Method: as §1

[8] = tested on: A. baumannii ATCC BAA-1710; assay: MIC, agar plate dilution method, A. baumannii ATCC BAA-1710; assay type: cell-based, Acinetobacter baumannii; settings: for MIC: Acinetobacter baumannii, ATCCBAA1710, A. baumannii ATCC BAA-1710, MDRA, read-out: minimal inhibitory concentration (MIC); for minimal inhibitory concentration (MIC): A. baumannii ATCC BAA-1710, MDRA
Method: as §1

[9] = tested on: S. marcescens TH-0447; assay: MIC, agar plate dilution method, S. marcescens TH-0447; assay type: cell-based, Serratia marcescens; settings: for MIC: Serratia marcescens, TH0447, S. marcescens TH-0447, AMK-resistant, read-out: minimal inhibitory concentration (MIC); for minimal inhibitory concentration (MIC): S. marcescens TH-0447, AMK-resistant
Method: as §1

[10] = tested on: S. marcescens GN6944; assay: MIC, agar plate dilution method, S. marcescens GN6944; assay type: cell-based, Serratia marcescens; settings: S. marcescens GN6944, GM-resistant; for MIC: Serratia marcescens, read-out: minimal inhibitory concentration (MIC)
Method: as §1

[11] = tested on: P. aeruginosa PAO1; assay: MIC, agar plate dilution method, P. aeruginosa PAO1; assay type: cell-based, Pseudomonas aeruginosa; settings: for MIC: Pseudomonas aeruginosa, PAO1, P. aeruginosa PAO1, Sensitive bacterium, read-out: minimal inhibitory concentration (MIC); for minimal inhibitory concentration (MIC): P. aeruginosa PAO1, Sensitive bacterium
Method: as §1

[12] = tested on: P. aeruginosa PAO1/GN315; assay: MIC, agar plate dilution method, P. aeruginosa PAO1/GN315; assay type: cell-based, Pseudomonas aeruginosa; settings: for MIC: Pseudomonas aeruginosa, read-out: minimal inhibitory concentration (MIC), P. aeruginosa PAO1/GN315, AMK-resistant; for minimal inhibitory concentration (MIC): P. aeruginosa PAO1/GN315, AMK-resistant
Method: as §1

[13] = tested on: P. aeruginosa MSC17707; assay: MIC, agar plate dilution method, P. aeruginosa MSC17707; assay type: cell-based, Pseudomonas aeruginosa; settings: for MIC: Pseudomonas aeruginosa, MSC17707, P. aeruginosa MSC17707, AMK-resistant, read-out: minimal inhibitory concentration (MIC); for minimal inhibitory concentration (MIC): P. aeruginosa MSC17707, AMK-resistant
Method: as §1

[14] = tested on: P. aeruginosa MSC01035; assay: MIC, agar plate dilution method, P. aeruginosa MSC01035; assay type: cell-based, Pseudomonas aeruginosa; settings: P. aeruginosa MSC01035, ABK-resistant; for MIC: Pseudomonas aeruginosa, read-out: minimal inhibitory concentration (MIC)
Method: as §1

## CNC1C(O[C@H]2OC(CO)[C@@H](N[C@H]3CC[C@@H](N)CC3)[C@H](O)C2O)O[C@H]2CC(N)[C@@H](O[C@@H]3C(N)C[C@@H](N)C(O)[C@H]3O)OC2C1O (stereo partly drawn) [Compound A4-f, 4″-N-(cis-1,4-4-aminocyclohexyl)apramycin]
[1]
  MIC: 4 µg/mL (≈ 6.28 µM)
[2]
  MIC: 4 µg/mL (≈ 6.28 µM)
[3]
  MIC: 8 µg/mL (≈ 12.6 µM)
[4]
  MIC: 32 µg/mL (≈ 50.3 µM)
[5]
  MIC: 1 µg/mL (≈ 1.57 µM)
[6]
  MIC: 2 µg/mL (≈ 3.14 µM)
[7]
  MIC: 1 µg/mL (≈ 1.57 µM)
[8]
  MIC: 32 µg/mL (≈ 50.3 µM)
[9]
  MIC: 16 µg/mL (≈ 25.1 µM)
[10]
  MIC: 8 µg/mL (≈ 12.6 µM)
[11]
  MIC: 16 µg/mL (≈ 25.1 µM)
[12]
  MIC: 16 µg/mL (≈ 25.1 µM)
[13]
  MIC: 16 µg/mL (≈ 25.1 µM)
[14]
  MIC: 16 µg/mL (≈ 25.1 µM)

## CNC1C(O[C@H]2OC(CO)[C@@H](NC3CNC3)[C@H](O)C2O)O[C@H]2CC(N)[C@@H](O[C@@H]3C(N)C[C@@H](N)C(O)[C@H]3O)OC2C1O (stereo partly shown) [Compound A4-h, 4″-N-(azetidin-3-yl)apramycin]
[1]
  minimal inhibitory concentration (MIC): 4 µg/mL (≈ 6.73 µM)
[2]
  minimal inhibitory concentration (MIC): 4 µg/mL (≈ 6.73 µM)
[3]
  minimal inhibitory concentration (MIC): 16 µg/mL (≈ 26.9 µM)
[4]
  minimal inhibitory concentration (MIC): 32 µg/mL (≈ 53.8 µM)
[5]
  minimal inhibitory concentration (MIC): 2 µg/mL (≈ 3.36 µM)
[6]
  minimal inhibitory concentration (MIC): 4 µg/mL (≈ 6.73 µM)
[7]
  minimal inhibitory concentration (MIC): 2 µg/mL (≈ 3.36 µM)
[8]
  minimal inhibitory concentration (MIC): 16 µg/mL (≈ 26.9 µM)
[9]
  minimal inhibitory concentration (MIC): 16 µg/mL (≈ 26.9 µM)
[10]
  minimal inhibitory concentration (MIC): 8 µg/mL (≈ 13.5 µM)
[11]
  minimal inhibitory concentration (MIC): 8 µg/mL (≈ 13.5 µM)
[12]
  minimal inhibitory concentration (MIC): 16 µg/mL (≈ 26.9 µM)
[13]
  minimal inhibitory concentration (MIC): 16 µg/mL (≈ 26.9 µM)
[14]
  minimal inhibitory concentration (MIC): 16 µg/mL (≈ 26.9 µM)

## CNC1C(O[C@H]2OC(CO)[C@@H](NC3CN(C)C3)[C@H](O)C2O)O[C@H]2CC(N)[C@@H](O[C@@H]3C(N)C[C@@H](N)C(O)[C@H]3O)OC2C1O (stereo partly shown) [Compound A4-i, 4″-N-(1-methylazetidin-3-yl)apramycin]
[1]
  MIC: 4 µg/mL (≈ 6.57 µM)
[2]
  MIC: 4 µg/mL (≈ 6.57 µM)
[3]
  MIC: 16 µg/mL (≈ 26.3 µM)
[4]
  MIC: 32 µg/mL (≈ 52.6 µM)
[5]
  MIC: 1 µg/mL (≈ 1.64 µM)
[6]
  MIC: 2 µg/mL (≈ 3.29 µM)
[7]
  MIC: 2 µg/mL (≈ 3.29 µM)
[8]
  MIC: 16 µg/mL (≈ 26.3 µM)
[9]
  MIC: 16 µg/mL (≈ 26.3 µM)
[10]
  MIC: 8 µg/mL (≈ 13.1 µM)
[11]
  MIC: 8 µg/mL (≈ 13.1 µM)
[12]
  MIC: 16 µg/mL (≈ 26.3 µM)
[13]
  MIC: 16 µg/mL (≈ 26.3 µM)
[14]
  MIC: 16 µg/mL (≈ 26.3 µM)

## CNC1C(O[C@H]2OC(CO)[C@@H](NC(=N)N)[C@H](O)C2O)O[C@H]2CC(N)[C@@H](O[C@@H]3C(N)C[C@@H](N)C(O)[C@H]3O)OC2C1O (stereo partly shown) [Compound A4-j, 4″-deamino-4″-guanidinoapramycin]
[1]
  MIC: 2 µg/mL (≈ 3.44 µM)
[2]
  MIC: 2 µg/mL (≈ 3.44 µM)
[3]
  MIC: 8 µg/mL (≈ 13.8 µM)
[4]
  MIC: 16 µg/mL (≈ 27.5 µM)
[5]
  MIC: 1 µg/mL (≈ 1.72 µM)
[6]
  MIC: 2 µg/mL (≈ 3.44 µM)
[7]
  MIC: 1 µg/mL (≈ 1.72 µM)
[8]
  MIC: 8 µg/mL (≈ 13.8 µM)
[9]
  MIC: 8 µg/mL (≈ 13.8 µM)
[10]
  MIC: 4 µg/mL (≈ 6.88 µM)
[11]
  MIC: 4 µg/mL (≈ 6.88 µM)
[12]
  MIC: 8 µg/mL (≈ 13.8 µM)
[13]
  MIC: 8 µg/mL (≈ 13.8 µM)
[14]
  MIC: 8 µg/mL (≈ 13.8 µM)

## CNC1C(OC2OC(CO)C(NCCNC(=N)N)C(O)C2O)OC2CC(N)C(OC3C(N)CC(N)C(O)C3O)OC2C1O (stereo not shown) [Compound A4-k, 4″-N-guanidinoethylapramycin]
[1]
  minimal inhibitory concentration (MIC): 2 µg/mL (≈ 3.2 µM)
[2]
  minimal inhibitory concentration (MIC): 2 µg/mL (≈ 3.2 µM)
[3]
  minimal inhibitory concentration (MIC): 16 µg/mL (≈ 25.6 µM)
[4]
  minimal inhibitory concentration (MIC): 16 µg/mL (≈ 25.6 µM)
[5]
  minimal inhibitory concentration (MIC): 0.5 µg/mL (≈ 0.8 µM)
[6]
  minimal inhibitory concentration (MIC): 1 µg/mL (≈ 1.6 µM)
[7]
  minimal inhibitory concentration (MIC): 1 µg/mL (≈ 1.6 µM)
[8]
  minimal inhibitory concentration (MIC): 8 µg/mL (≈ 12.8 µM)
[9]
  minimal inhibitory concentration (MIC): 8 µg/mL (≈ 12.8 µM)
[10]
  minimal inhibitory concentration (MIC): 4 µg/mL (≈ 6.4 µM)
[11]
  minimal inhibitory concentration (MIC): 8 µg/mL (≈ 12.8 µM)
[12]
  minimal inhibitory concentration (MIC): 8 µg/mL (≈ 12.8 µM)
[13]
  minimal inhibitory concentration (MIC): 16 µg/mL (≈ 25.6 µM)
[14]
  minimal inhibitory concentration (MIC): 16 µg/mL (≈ 25.6 µM)
